Values of other authors in patent US20030060663A1, “Novel therapeutic agents for macromolecular structures” (priority 1998, published 2003).
Read-outs that look alike come from different tables or passages of the source.

Assays:
[1] = animal models
[2] = clinical trials
coxsackievirus A21 = settings: p.o. administration, patients challenged with coxsackievirus A21
[3] = tested on: HRV (human rhinovirus)-16, 39, and 50; settings: administered orally to patients infected with HRV-16, 39, and 50
[4] = tested on: Microsporum, Epidermophyton and Trichophyton; settings: various species of Microsporum
fungal pathogens = settings: on average; for MIC values, fold higher than amphotericin B: range of fungal pathogens
HRV-9 = settings: against HRV-9
mitotic microtubules = settings: intact tectal plates from mouse embryos; blockade of cells at metaphase
axonal microtubules = settings: intact tectal plates from mouse embryos
yeasts = settings: relative to amphotericin B

Question: For `COC(=O)[C@H]1[C@@H]2C[C@@H](O[C@@H]3O[C@H](C)[C@@H](O)[C@H](N)[C@@H]3O)/C=C/C=C/C=C/C=C/C=C/C=C/C=C/[C@H](C)[C@@H](O)[C@@H](C)[C@H](C)OC(=O)C[C@H](O)C[C@H](O)CC[C@@H](O)[C@H](O)C[C@H](O)C[C@](O)(C[C@@H]1O)O2` [Amphotericin B methyl ester], which “nephrotoxicity compared with amphotericin B” value [1] is on record?
Answer: less nephrotoxic

Question: What about the “nephrotoxicity compared with amphotericin B” value [2] of the same compound?
Answer: less nephrotoxic

Question: Which results are given for `Cc1cc(CCCCCOc2c(Cl)cc(C3N=CCO3)cc2Cl)on1` (centres unmarked) [Compound A]?
Answer: prophylactic effect in clinical trials (coxsackievirus A21): prophylactic effect; therapeutic effect [3]: did not demonstrate a therapeutic effect

Question: For `COC1=CC(=O)C[C@@H](C)[C@]12Oc1c(Cl)c(OC)cc(OC)c1C2=O` [Griseofulvin], which “in vitro activity against fungi” value [4] is on record?
Answer: fungistatic

Question: With `COC(=O)C1C(O)CC2(O)CC(O)CC(O)C(O)CCC(O)CC(O)CC(=O)OC(C)C(C)C(O)C(C)C=CC=CC=CC=CC=CC=CC=CC(OC3OC(C)C(O)C(NC(=O)C(N)CCCN)C3O)CC1O2` (centres unmarked) [N-ornithyl amphotericin B methyl ester] as the compound, how does the “nephrotoxicity compared with amphotericin B” value [1] read?
Answer: less nephrotoxic

Question: For `CC1C=CC=CC=CC=CC=CC=CC=CC(OC2OC(C)C(O)C(N)C2O)CC2OC(OCCO)(CC(O)CC(O)C(O)CCC(O)CC(O)CC(=O)OC(C)C(C)C1O)CC(O)C2C(=O)O` (stereo not drawn) [beta-hydroxyethoxy ketal], which “MIC values, fold higher than amphotericin B” value (fungal pathogens) is on record?
Answer: 2 fold

Question: With `COc1ccc(N2CCN(c3cccc(C)c3)CC2)nn1` [compound C] as the compound, how does the prophylactic use (HRV-9) read?
Answer: worked prophylactically

Question: For `COC12CC(O)CC(O)C(O)CCC(O)CC(O)CC(=O)OC(C)C(C)C(O)C(C)C=CC=CC=CC=CC=CC=CC=CC(OC3OC(C)C(O)C(N)C3O)CC(O1)C(C(=O)O)C(O)C2` (centres unmarked) [methoxy ketal], which “MIC values, fold higher than amphotericin B” value (fungal pathogens) is on record?
Answer: 2 fold

Question: For `CCCOC12CC(O)CC(O)C(O)CCC(O)CC(O)CC(=O)OC(C)C(C)C(O)C(C)C=CC=CC=CC=CC=CC=CC=CC(OC3OC(C)C(O)C(N)C3O)CC(O1)C(C(=O)O)C(O)C2` (centres unmarked) [n-propyloxy ketal], which “fold less potent in vitro” value (fungal pathogens) is on record?
Answer: 10 fold

Question: For `CC[C@]1(O)C[C@@H]2CN(CCc3c([nH]c4ccccc34)[C@@](C(=O)OC)(c3cc4c(cc3OC)N(C)[C@H]3[C@@](O)(C(=O)OC)[C@H](OC(C)=O)[C@]5(CC)C=CCN6CC[C@]43[C@@H]65)C2)C1` [vinblastine], which “concentration at which mitotic microtubule formation is inhibited” value (mitotic microtubules) is on record?
Answer: 2 mcM

Question: What about the “concentration producing depolymerization of axonal microtubules” value (from here on “concentration producing depolymerization”) (axonal microtubules) of the same compound?
Answer: 30 mcM

Question: For `CC[C@]1(O)C[C@H]2CN(CCc3c([nH]c4ccccc34)[C@@](C(=O)OC)(c3cc4c(cc3OC)N(C=O)[C@H]3[C@@](O)(C(=O)OC)[C@H](OC(C)=O)[C@]5(CC)C=CCN6CC[C@]43[C@@H]65)C2)C1` [vincristine, Vincristine], which “concentration at which mitotic microtubule formation is inhibited” value (mitotic microtubules) is on record?
Answer: 2 mcM

Question: What about the “concentration producing depolymerization” value (axonal microtubules) of the same compound?
Answer: 5 mcM

Question: With `CCC1=C[C@@H]2CN(C1)Cc1c([nH]c3ccccc13)[C@@](C(=O)OC)(c1cc3c(cc1OC)N(C)[C@H]1[C@@](O)(C(=O)OC)[C@H](OC(C)=O)[C@]4(CC)C=CCN5CC[C@]31[C@@H]54)C2` [vinorelbine, 3′,4′-Didehydro-4′-deoxy-C′-norvincaleukoblastine] as the compound, how does the “concentration at which mitotic microtubule formation is inhibited” value (mitotic microtubules) read?
Answer: 2 mcM

Question: And the “concentration producing depolymerization” value (axonal microtubules)?
Answer: 40 mcM

Question: For “monovalent adduct of amphotericin B with N,N′-1,6-hexandiyl-bis(maleimide)”, which “MIC values against yeasts, fold higher than amphotericin B” value (yeasts) is on record?
Answer: more than 20 fold
